The results in this text go back to patent publication US12606833B2, “Modified mini-nucleosome core proteins and use in nucleic acid delivery” (priority 2020, dated 2026).

The test system of one data set is skeletal muscle cells. Description: GFP expression in leg muscle after intramuscular injection (dystrophin immunolabeling). The settings on record: 17.5 μg per leg, 3-month time point, FIG. 18. The data set is classed as in vivo, Balb/c mice. How it is done:
Balb/c mice were anesthetized by IP injection with Ketamine/Xylazine (90-100 mg/kg+10 mg/kg) and several loaded mini-nucleosomes were injected into both leg muscle at 17.5 μg doses per leg using an insulin syringe (Total dose 35 micrograms per mice). Mice were sacrificed at various time points and leg muscle were obtained for tissue sections. […] One skilled in the art may contemplate combining such domains with other domains known for muscle tropism.
To validate muscle specificity of expression of genes encoded by the nucleic acid cargo, we utilized dystrophin immunolabeling as an endogenous secondary marker. […] Native fluorescence of GFP was obtained in the 486-nm channel of Leica SP5 scope. Dystrophin in red is the RFP channel (555-nm). Untransduced muscle cells in figure also serve as internal control for differentiation between GFP signal and autofluorescence.

The test system of the next data set is retina and RPE cells. Description: GFP expression in retina and RPE after intravitreal injection in mice. The format is in vivo, Balb/c mice. The conditions noted are these: 1.5 micrograms, GFP plasmid, FIGS. 10 and 12. Here is the method: In the present Example, Balb/c mice were anesthetized by IP injection with Ketamine/Xylazine (90-100 mg/kg+10 mg/kg) and positioned underneath a microscope. Mice eyes were dilated with topical Tropicamide (1%) and 1 μl of loaded mini-nucleosomes (total dose 1.5 micrograms in mice) were injected into the vitreous cavity using 32 gauge blunt needle passing through the incision made by a 25-gauge needle below the limbus. At various time points, mice were perfused with 10 ml of 1xPBS, and then sacrificed using standard techniques. Mice were enucleated and eyecups were collected and incubated in 4% paraformaldehyde overnight. The eyecups were washed with 1xPBS, then immersed in 15% sucrose for few hours and then in 30% sucrose solution overnight for cryopreservation. The eyecups were then placed in a plastic vial and frozen using OCT compound for cryo-sectioning. 10-micron thick tissue sections were obtained for staining. The retinal sections were mounted with mounting media with or without DAPI, coverslip and sealed. Images were acquired by Leica SP5. For wholemount imaging, eyecups were fixed in 4% paraformaldehyde overnight. Eyecups were washed in 1xPBS, retina was removed and the remaining eyecup or RPE wholemount was processed for staining. The RPE tissue was wholemounted with mounting media, coverslip and sealed. Images were acquired by Leica SP5.

The nature of data set [1]: Transmission Electron Microscopy (TEM) of loaded mini-nucleosomes. The format is physicochemical. The conditions noted are these: luciferase plasmid (SEQ ID NO: 396) condensed with core protein, formulated in water.
Description: To form loaded mini-nucleosomes represented in FIG. 7, core proteins were synthesized by solid phase synthesis using trifluoroacetate buffers. 200 micrograms of DNA (SEQ ID NO: 396) were added to 1 milligram of lyophilized core proteins and vortexed together, and purified to produce loaded mini-nucleosomes (FIG. 7). Buffer exchange was performed and final formulation of mini-nucleosome was made in sterile, endotoxin free water. 1 microgram of each kind of mini-nucleosomes was diluted in water and then placed on grids that were stained with freshly prepared in 0.75% uranyl acetate in methanol solution for two minutes. Grids were dipped in 100% ethanol and then blotted into lens absorbent paper. The grids were then air-dried for few minutes with film side up and taken for imaging with Hammatsu ORCA HR camera (FIG. 7).
The next data set concerns lung epithelium. Description: GFP expression after intranasal delivery (lung sections with CFTR staining, whole lung imaging, trachea). The format is in vivo, Balb/c mice. The settings on record: 5-week post injection, FIGS. 15 and 16. How it is done:
In the present Example, Balb/c mice were anesthetized by IP injection with Ketamine/Xylazine (90-100 mg/kg+10 mg/kg) and the anesthetized mice were positioned underneath a microscope for visual of the nasal area for intranasal delivery. 1 μl of loaded mini-nucleosome (SEQ ID NO: 390+GFP plasmid) solution was delivered into the nasal cavity every few seconds until 12 microliters were delivered to each nasal side. Total dose of 25 micrograms was delivered. Following sacrifice, mice lung was processed to obtain 10 micron thick sections. Sections were washed in PBS and incubated in blocking buffer (0.1% TritonX-100, 1% BSA, 3% donkey serum) for 1 hr and then incubated in CFTR antibody (prepared on blocking buffer) blocking buffer overnight at 4 degree Celsius. Next day wash in PBS 3×5 min and incubated in AlexaFlour-555 (Donkey Anti-rabbit IgG secondary) in blocking buffer at RT for 1 hour and washed in PBS 3×5 min. Mounting media was added and coverslip was applied and sealed. Native fluorescence of GFP was obtained in the 486 nm channel of Leica SP5 scope in the 486-nm wavelength and CFTR expression in the 555-nm channel.
In the present Example, whole lung tissue and biodistribution via mini-nucleosome was also evaluated (FIG. 15). […] Whole tissues were placed in the Odyssey imager for detecting GFP native fluorescence.

The test system of another data set is RPE cells. Description: GFP expression in rat retinal tissue after intraocular delivery. The format is in vivo. The conditions noted are these: rat eyes, FIG. 11. The source says:
To selectively transduce photoreceptors, the present Example utilized core proteins like those of SEQ ID NO:394. […] This neuronal attachment domain has not been previously applied for non-viral vectors to target neurons. The present disclosure provides that this neuronal targeted vector can transduce neurons in the brain via local or systemic administration. The present disclosure further provides for targeting photoreceptor binding and internalization by incorporating lectin binding domains (described in Table 4) in mini-nucleosomes for attachment to photoreceptor extracellular matrix to enhance uptake. […] Moreover, more than one domain could be utilized to selectively transduce a plurality of diverse cell types. This core protein (SEQ ID NO: 390) with integrin binding properties may also be utilized for delivery of nucleic acids to other cell types that express high levels of aVB5 integrin. The present disclosure further provides use of other intra-ocular injection techniques such as subretinal, suprachoroidal, intra-cameral, or topical administration to target photoreceptors, RPE, Mueller cells or other cell types in the retina.

Where no end group is shown, it is not given here. [ ]: non-standard residue; d: D form. LINKER = not defined here

Take “KKKRHRKRKRKRKRRRRKKK-[LINKER]-ASSLNIAK-[LINKER]-RRRR (KKKRHRKRKRKRKRRRRKKK[LINKER]ASSLNIAK[LINKER]RRRR; not fully specified; numbers in words are those of the source; reading uncertain; also: linkers of unspecified length between segments (after 20 and 28)) [SEQ ID NO: 389]”: the “GFP fluorescence in muscle tissue sections” value in the data set on skeletal muscle cells was “didn't exhibit GFP fluorescence”.

In the case of “KKRHRK-[LINKER]-LRE-[LINKER]KRHRKLRRRRRLKRHRKKRHRK-[LINKER]-LRE-[LINKER]-K (KKRHRK[LINKER]LRE[LINKER]KRHRKLRRRRRLKRHRKKRHRK[LINKER]LRE[LINKER]K; not fully specified; numbers in words are those of the source; reading uncertain; also: linkers of unspecified length between segments (after 6, 9, 31, 34)) [SEQ ID NO: 394]”, the “GFP expression / uptake in mouse retina and RPE” value with retina and RPE cells was “transduction into ganglion cells, bipolar cells and photoreceptors”.

On to “KKKRHRKKKKK-[LINKER]-RGD-[LINKER]-KKKK-[LINKER]-NTQIH-[LINKER]-RRRRR-[LINKER]-TPH-[LINKER]-KK (KKKRHRKKKKK[LINKER]RGD[LINKER]KKKK[LINKER]NTQIH[LINKER]RRRRR[LINKER]TPH[LINKER]KK; not fully specified; numbers in words are those of the source; reading uncertain; also: linkers of unspecified length between segments (after 11, 14, 18, 23, 28, 31)) [SEQ ID NO: 391]”, for which the “Shape of loaded mini-nucleosome (TEM)” value in data set [1] is “mixture of circular and rod like molecules”. Further, the “GFP fluorescence in muscle tissue sections” value in the data set on skeletal muscle cells is reported as “sharp green fluorescence in skeletal muscle cells”.

For “KKKRK-[LINKER]-NGR-[LINKER]-KRKRKKRHRKKKKRRRRKRHRK-[LINKER]-NGR-[LINKER]-KKK (KKKRK[LINKER]NGR[LINKER]KRKRKKRHRKKKKRRRRKRHRK[LINKER]NGR[LINKER]KKK; not fully specified; numbers in words are those of the source; reading uncertain; also: linkers of unspecified length between segments (after 5, 8, 30, 33)) [SEQ ID NO: 390]”, in data set [1], the “Shape of loaded mini-nucleosome (TEM)” value is reported as “rod/lobular shaped”. Further, the “GFP native fluorescence in whole lung tissue / sustained expression” value in the data set with lung epithelium is on record as “high levels of sustained expression”. Further, the “GFP expression in rat retinal tissue” value with RPE cells is recorded as “transduce RPE cells in rat eyes exclusively”.

Regarding “KKKRK-[LINKER]-KTKKK-[LINKER]-AK-[LINKER]-KALKKK-[LINKER]-KKGKKKKRRRRKAAPKK (KKKRK[LINKER]KTKKK[LINKER]AK[LINKER]KALKKK[LINKER]KKGKKKKRRRRKAAPKK; not fully specified; numbers in words are those of the source; reading uncertain; also: linkers of unspecified length between segments (after 5, 10, 12, 18)) [SEQ ID NO: 392]”, the “GFP expression / uptake in mouse retina and RPE” value in the data set with retina and RPE cells is reported as “enhanced uptake into the RPE”.
